Tests used:
R441A MtPMT = type: cell-based, M. tuberculosis

| SMILES | chemical complementation of inactive D74A mutant (D74A MtPMT) | chemical complementation of inactive D176A mutant (D176A MtPMT) | restored FasC mannosylation, level of the wild type MtPMT (R441A MtPMT) |
| --- | --- | --- | --- |
| CC(=O)[O-].[Na+] [sodium acetate] | ineffective | ineffective |  |
| Cl.N=C(N)N [guanidine chloride, guanidine hydrochloride] |  |  | ~ 25 ± 5% |
| [N-]=[N+]=[N-].[Na+] [sodium azide] | ineffective | ineffective |  |
| c1c[nH]cn1 [imidazole] |  |  | ~ 25 ± 5% |
